Assay results: patent US8741934B2, “Inhibitors of ion channels” (Pfizer Limited, priority 2007, dated 2014)

Target: T1, hSCN3A sodium channels (Homo sapiens, UniProt Q9NY46)
T1 construct: expressed in transfected cells
Test: hSCN3A electrophysiology, Ionworks Quattro automated platform (Table C)
Format: cell-based
Conditions: for inhibition at 3 µM: read-out: SCN3A % INHIB HTS IWQ 3 μM; for inhibition at 10 µM: read-out: SCN3A % INHIB HTS IWQ 10 μM
Summary of the method: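 HEK cells stably expressing hSCN3A were recorded in perforated-patch mode with 100 μg/ml amphotericin on Ionworks Quattro. The protocol used an inactivating step, a brief hyperpolarized partial recovery, then a depolarized test step. Inhibition was taken from current amplitude before versus after compound addition.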

T1 sequence (Q9NY46 whole entry): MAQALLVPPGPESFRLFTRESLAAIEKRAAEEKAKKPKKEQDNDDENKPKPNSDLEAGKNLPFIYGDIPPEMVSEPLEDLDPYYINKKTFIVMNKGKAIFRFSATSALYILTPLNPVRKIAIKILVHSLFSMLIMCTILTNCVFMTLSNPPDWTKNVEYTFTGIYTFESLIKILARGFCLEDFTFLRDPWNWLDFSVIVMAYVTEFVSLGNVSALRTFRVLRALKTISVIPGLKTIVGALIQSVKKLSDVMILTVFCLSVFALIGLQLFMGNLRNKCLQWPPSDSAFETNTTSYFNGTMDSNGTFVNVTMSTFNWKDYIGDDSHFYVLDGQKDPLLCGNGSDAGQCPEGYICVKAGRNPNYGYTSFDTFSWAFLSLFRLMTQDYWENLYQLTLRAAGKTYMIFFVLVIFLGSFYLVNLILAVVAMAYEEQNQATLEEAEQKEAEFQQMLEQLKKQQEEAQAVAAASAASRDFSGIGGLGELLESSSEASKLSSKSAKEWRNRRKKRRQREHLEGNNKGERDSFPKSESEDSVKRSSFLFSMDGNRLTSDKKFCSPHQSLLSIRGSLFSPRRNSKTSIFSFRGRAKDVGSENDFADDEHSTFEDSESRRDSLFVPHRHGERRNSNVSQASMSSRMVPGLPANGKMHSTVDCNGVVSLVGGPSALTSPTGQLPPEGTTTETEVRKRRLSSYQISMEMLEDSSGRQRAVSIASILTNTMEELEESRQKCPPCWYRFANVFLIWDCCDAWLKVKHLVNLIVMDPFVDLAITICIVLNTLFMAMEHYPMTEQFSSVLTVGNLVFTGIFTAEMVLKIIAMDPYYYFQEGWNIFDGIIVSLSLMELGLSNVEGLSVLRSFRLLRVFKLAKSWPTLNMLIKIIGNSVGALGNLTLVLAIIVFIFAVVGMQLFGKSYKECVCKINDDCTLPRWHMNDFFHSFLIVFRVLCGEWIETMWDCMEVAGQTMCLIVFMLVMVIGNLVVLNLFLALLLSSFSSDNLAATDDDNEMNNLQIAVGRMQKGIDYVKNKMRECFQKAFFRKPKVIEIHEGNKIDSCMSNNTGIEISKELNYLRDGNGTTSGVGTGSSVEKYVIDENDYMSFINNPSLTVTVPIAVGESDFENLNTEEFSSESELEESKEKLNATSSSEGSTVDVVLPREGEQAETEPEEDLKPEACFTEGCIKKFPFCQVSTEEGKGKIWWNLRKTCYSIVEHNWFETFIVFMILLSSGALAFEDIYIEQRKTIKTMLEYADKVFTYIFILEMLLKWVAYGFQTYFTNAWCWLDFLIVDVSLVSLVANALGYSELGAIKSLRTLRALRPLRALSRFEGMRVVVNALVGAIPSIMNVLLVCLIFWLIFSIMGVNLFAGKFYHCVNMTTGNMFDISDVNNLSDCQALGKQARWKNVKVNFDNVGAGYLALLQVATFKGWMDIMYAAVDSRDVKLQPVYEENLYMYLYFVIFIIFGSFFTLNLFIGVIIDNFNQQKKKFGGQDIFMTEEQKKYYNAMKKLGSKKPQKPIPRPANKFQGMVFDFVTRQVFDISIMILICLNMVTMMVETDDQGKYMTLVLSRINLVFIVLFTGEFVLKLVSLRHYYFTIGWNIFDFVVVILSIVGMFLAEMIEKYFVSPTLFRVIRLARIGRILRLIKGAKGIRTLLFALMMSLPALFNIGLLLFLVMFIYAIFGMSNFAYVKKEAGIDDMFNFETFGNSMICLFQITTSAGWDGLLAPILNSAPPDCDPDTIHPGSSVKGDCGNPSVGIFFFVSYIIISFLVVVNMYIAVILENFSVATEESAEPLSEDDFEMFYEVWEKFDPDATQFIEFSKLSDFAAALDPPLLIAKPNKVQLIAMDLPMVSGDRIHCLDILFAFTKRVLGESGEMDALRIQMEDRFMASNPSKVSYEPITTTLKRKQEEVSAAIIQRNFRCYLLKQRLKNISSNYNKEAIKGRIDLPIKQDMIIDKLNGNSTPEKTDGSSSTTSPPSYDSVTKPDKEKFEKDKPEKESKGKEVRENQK

Row | Compound | inhibition at 3 µM (3 μM compound) | inhibition at 10 µM (10 μM compound) | other results
1 | O=C(N[C@H](CO)Cc1ccccc1)c1ccc(S(=O)(=O)Nc2nccs2)cc1 [Example 182, N-[(1S)-1-benzyl-2-hydroxyethyl]-4-[(1,3-thiazol-2-ylamino)sulfonyl]benzamide] | 4.7% | 4.83% | 
2 | CC[C@H](NC(=O)c1ccc(S(=O)(=O)Nc2nccs2)cc1)c1ccccc1 [Example 145, N-[(1S)-1-phenylpropyl]-4-[(1,3-thiazol-2-ylamino)sulfonyl]benzamide] | 2.05% | 19.4% | 
3 | COc1ccc(CC2CCCN(C(=O)c3ccc(S(=O)(=O)Nc4nccs4)cc3)C2)cc1 (stereo not drawn) [Example 270, 4-{[3-(4-Methoxybenzyl)piperidin-1-yl]carbonyl}-N-1,3-thiazol-2-yl-benzenesulfonamide] | 19.2% | 45.7% | SCN3A INHIB INACT DRC EP IWQ EMAX (Emax of dose-response curve, inactivated state): 53.7; IC50 (read-out: SCN3A IWQ IC-50): 27.7 µM
4 | CC(CNC(=O)c1ccc(S(=O)(=O)Nc2nccs2)cc1)c1ccccc1 (stereo not drawn) [Example 155, N-(2-phenylpropyl)-4-[(1,3-thiazol-2-ylamino)sulfonyl]benzamide] | 30.1% | 40.8% | 
5 | COc1cccc(C2CCCCN2C(=O)c2ccc(S(=O)(=O)Nc3nccs3)cc2)c1 (stereo not drawn) [Example 201, 4-{[2-(3-Methoxyphenyl)piperidin-1-yl]carbonyl}-N-1,3-thiazol-2-yl-benzenesulfonamide] | 13.7% | -0.98% | 
6 | O=C(NCCOc1ccccc1F)c1ccc(S(=O)(=O)Nc2nccs2)cc1 [Example 167, N-[2-(2-fluorophenoxy)ethyl]-4-[(1,3-thiazol-2-ylamino)sulfonyl]benzamide] | 30.8% | 43% | 
7 | Cc1ccc(F)cc1CNC(=O)c1ccc(S(=O)(=O)Nc2nccs2)cc1 [Example 58, N-(5-fluoro-2-methylbenzyl)-4-[(1,3-thiazol-2-ylamino)sulfonyl]benzamide] | 37.4% | 49.7% | 
8 | O=C(N[C@H]1CCC[C@@H]1c1ccccc1)c1ccc(S(=O)(=O)Nc2nccs2)cc1 [Example 131, N-[(1S,2R)-2-phenylcyclopentyl]-4-[(1,3-thiazol-2-ylamino)sulfonyl]benzamide] | 27.2% | 13.1% | 
9 | CC(Cc1ccc(F)cc1)NC(=O)c1ccc(S(=O)(=O)Nc2nccs2)cc1 (stereo not drawn) [Example 149, N-[2-(4-fluorophenyl)-1-methylethyl]-4-[(1,3-thiazol-2-ylamino)sulfonyl]benzamide] | 12.5% | 14.6% | 
10 | CC(C)N(Cc1ccccc1)C(=O)c1ccc(S(=O)(=O)Nc2nccs2)cc1 [Example 187, N-benzyl-N-isopropyl-4-[(1,3-thiazol-2-ylamino)sulfonyl]benzamide] | 5.69% | 4.2% | 
11 | O=C(c1ccc(S(=O)(=O)Nc2nccs2)cc1)N(Cc1ccc(F)cc1)C1CC1 [Example 230, N-cyclopropyl-N-(4-fluorobenzyl)-4-[(1,3-thiazol-2-yl-amino)sulfonyl]benzamide] | 16.7% | -0.51% | 
12 | Cc1cccc(CNC(=O)c2ccc(S(=O)(=O)Nc3nccs3)cc2)c1 [Example 71, N-(3-methylbenzyl)-4-[(1,3-thiazol-2-ylamino)sulfonyl]benzamide] | 38.8% | 37.1% | 
13 | C[C@@H]([C@H](O)c1ccccc1)N(C)C(=O)c1ccc(S(=O)(=O)Nc2nccs2)cc1 [Example 188, N-[(1S,2R)-2-hydroxy-1-methyl-2-phenylethyl]-N-methyl-4-[(1,3-thiazol-2-ylamino)sulfonyl]benzamide] | 14.5% | 1.03% | 
14 | Cc1cc(C)nc(CC2CCCCCN2C(=O)c2ccc(S(=O)(=O)Nc3nccs3)cc2)c1 (stereo not drawn) [Example 246, 4-({2-[(4,6-Dimethylpyridin-2-yl)methyl]azepan-1-yl}carbonyl)-N-1,3-thiazol-2-yl-benzenesulfonamide] | -0.31% | -1.47% | 
15 | O=C(c1ccc(S(=O)(=O)Nc2nccs2)cc1)N1CCCC1Cc1ccccc1 (stereo not drawn) [Example 197, 4-[(2-Benzylpyrrolidin-1-yl)carbonyl]-N-1,3-thiazol-2-yl-benzenesulfonamide] | 17.6% | 17.4% | 
16 | O=C(NCC1(c2ccccc2)CC1)c1ccc(S(=O)(=O)Nc2nccs2)cc1 [Example 153, N-[(1-phenylcyclopropyl)methyl]-4-[(1,3-thiazol-2-ylamino)sulfonyl]benzamide] | 15.9% | 32.9% | 
17 | O=C(NCc1c(F)cccc1C(F)(F)F)c1ccc(S(=O)(=O)Nc2nccs2)cc1 [Example 84, N-[2-fluoro-6-(trifluoromethyl)benzyl]-4-[(1,3-thiazol-2-ylamino)sulfonyl]benzamide] | 17.7% | 22.2% | 
18 | O=C(c1ccc(S(=O)(=O)Nc2nccs2)cc1)N(Cc1ccccc1)[C@@H]1CCCC[C@@H]1CO [Example 226, N-benzyl-N-[(1R,2S)-2-(hydroxymethyl)cyclohexyl]-4-[(1,3-thiazol-2-ylamino)sulfonyl]benzamide] | -1.52% | 13.9% | 
19 | COc1cccc(CC2CCCN2C(=O)c2ccc(S(=O)(=O)Nc3nccs3)cc2)c1 (stereo not drawn) [Example 240, 4-{[2-(3-Methoxybenzyl)pyrrolidin-1-yl]carbonyl}-N-1,3-thiazol-2-yl-benzenesulfonamide] | 14.4% | 20.2% | 
20 | CN(C(=O)c1ccc(S(=O)(=O)Nc2nccs2)cc1)C(Cc1ccccc1)c1ccccc1 (stereo not drawn) [Example 251, N-(1,2-diphenylethyl)-N-methyl-4-[(1,3-thiazol-2-ylamino)sulfonyl]benzamide] | 19.9% | 0.8% | 
21 | N-[1-(3-methylbenzyl)cyclopropyl] 4-[(1,3-thiazol-2-ylamino)sulfonyl]benzamide [Example 159] |  |  | SCN3A % INHIB HTS IWQ 3 μM (3 μM compound): 28.7%; SCN3A % INHIB HTS IWQ 10 μM (10 μM compound): 35.85%
22 | Cc1ccc(C)c(C2CCCN2C(=O)c2ccc(S(=O)(=O)Nc3nccs3)cc2)c1 (stereo not drawn) [Example 202, 4-{[2-(2,5-Dimethylphenyl)pyrrolidin-1-yl]carbonyl}-N-1,3-thiazol-2-yl-benzenesulfonamide] | 15.8% | 13.7% | 
23 | O=C(NCc1ccccc1OC(F)F)c1ccc(S(=O)(=O)Nc2nccs2)cc1 [Example 66, N-[2-(difluoromethoxy)benzyl]-4-[(1,3-thiazol-2-ylamino)sulfonyl]benzamide] | 16.4% | 34.4% | 
24 | CC(Cc1ccc(F)c(F)c1)NC(=O)c1ccc(S(=O)(=O)Nc2nccs2)cc1 (stereo not drawn) [Example 151, N-[2-(3,4-difluorophenyl)-1-methylethyl]-4-[(1,3-thiazol-2-ylamino)sulfonyl]benzamide] | 17.4% | 12.7% | 
25 | O=C(c1ccc(S(=O)(=O)Nc2nccs2)cc1)N1CCCCCC1c1ccccc1 (stereo not drawn) [Example 268, 4-[(2-Phenylazepan-1-yl)carbonyl]-N-1,3-thiazol-2-yl-benzenesulfonamide] | 11% | 10.6% | 
26 | O=C(c1ccc(S(=O)(=O)Nc2nccs2)cc1)N1CCOC(C2CC2)C1 (stereo not drawn) [Example 231, 4-[(2-Cyclopropylmorpholin-4-yl)carbonyl]-N-1,3-thiazol-2-yl-benzenesulfonamide] | 3.22% | -7.02% | 
